Target: human TMEM16A (Homo sapiens, UniProt Q5XXA6)
Test: Automated whole-cell patch clamp (Qpatch) assay to detect TMEM16A activity in recombinant cells
Type: cell-based
Settings: 3.33 μM test compound; % increase of baseline TMEM16A current; FRT cells stably expressing human TMEM16A (TMEM16Aabc variant); intracellular calcium at EC20
Experimental: Automated Whole-Cell Patch Clamp Assay to Detect TMEM16A Activity in Recombinant Cells
Fisher rat thyroid (FRT) cells stably expressing human TMEM16A (TMEM16Aabc variant; Dr Luis Galietta, Insituto Giannina, Italy) were cultured in T-75 flasks in Hams F-12 media with Coon's modification (Sigma) supplemented with 10% (v/v) foetal bovine serum, penicillin-streptomycin (10,000 U/mL/10000 pg/mL), G-418 (750 pg/mL), L-glutamine (2 mM) and sodium bicarbonate solution (7.5% v/v). At −90% confluence cells were harvested for experiments by detachment with a 2:1 (v/v) mixture of Detachin (BMS Biotechnology) and 0.25% (w/v) trypsin-EDTA. Cells were diluted to a density of 3.5-4.5×10^6 cells/mL with media consisting of CHO-S-SFM (Sigma), 25 mM HEPES (Sigma) and Soy bean trypsin inhibitor (Sigma).
FRT-TMEM16A cells were whole-cell patch clamped using an automated planar patch clamp system (Qpatch, Sophion). Briefly, once high resistance (GOhm) seals were established between the cells and the planar recording array the patch was ruptured using suction pulses to establish the whole-cell recording configuration of the patch clamp technique. The assay employed the following solutions (all reagents Sigma): Intracellular solution (mM): N-methyl-D-glucamine 130, CaCh 18.2, MgCh 1. HEPES 10, EGTA 10, BAPTA 20, Mg-ATP 2, pH 7.25, 325 mOsm with sucrose.
Extracellular solution (mM): N-methyl-D-glucamine 130, CaCl2 2, MgCh 1, HEPES 10, pH 7.3, 320 mOsm with sucrose.
The intracellular solution buffers intracellular calcium at levels required to give −20% activation of the maximal TMEM16A mediated current (EC20 for calcium ions). Cells were voltage clamped at a holding potential of −70 mV and a combined voltage step (to +70 mV)/ramp (−90 my to +90 mV) was applied at 0.05 Hz. After a period of current stabilisation test compounds, solubilised in 100% (v/v) DMSO and subsequently diluted into extracellular solution, were applied to generate a cumulative concentration response curve. Each concentration of test compound was incubated for 5 minutes before addition of the next concentration. After the final concentration was tested a supramaximal concentration of either a known active positive modulator or the TMEM16A inhibitor. CaCCinhAOI (Del La Fuente et al, 2008) was added to define the upper and lower limits of the assay.
Compound activity was quantified by measuring the increase in current upon compound addition and expressing this as a percentage increase of baseline TMEM16A current level. […]
Peak TMEM16A current at +70 mV was plotted as a function of time over the assay period. Baseline current (IBL) was measured after a period of stabilisation. The increase in current for each compound addition was determined by taking the peak current during the incubation period and subtracting the current from the previous recording period and then expressing this as a percentage of the baseline current. […]
For each additional concentration tested the increase in current was determined by subtracting the current from the previous incubation period and normalising the baseline value—for test concentration 2 in FIG. 1 this is: (I[#2]−I[# ? /IBL)×100
The values for each test concentration were plotted as a cumulative function of concentration eg. for test concentration two this would be the sum of the peak changes measured during concentration one plus concentration two.

Row | SMILES | % Potentiation @ 3.33 μM Avg
1 | CC(C)(C)NC(=O)c1cc(NC(=O)C2(c3cccc(Cl)c3)CC2)ccn1 [Example 5.31, N-tert-butyl-4-[[1-(3-chlorophenyl)cyclopropanecarbonyl]amino]pyridine-2-carboxamide] | 145%
2 | C#CC(C)(C)NC(=O)c1cc(NC(=O)Cc2cccc3cc[nH]c23)ccn1 [Example 79.3, N-(1,1-Dimethylprop-2-ynyl)-4-[[2-(1H-indol-7-yl)acetyl]amino]pyridine-2-carboxamide] | 64%
3 | CC(C)(C)NC(=O)c1cc(NC(=O)[C@@H]2CCc3ccccc32)ccn1 (single isomer, unassigned) [Example 21a, N-tert-Butyl-4-[[(1R)-indane-1-carbonyl]amino]pyridine-2-carboxamide or N-tert-Butyl-4-[[(1S)-indane-1-carbonyl]amino]pyridine-2-carboxamide] | 99%
4 | O=C(Cc1cc(Cl)ccc1O)Nc1ccnc(C(=O)NC23CCC(F)(C2)C3)c1 [Example 44, 4-[[2-(5-Chloro-2-hydroxy-phenyl)acetyl]amino]-N-(4-fluoro-1-bicyclo[2.1.1]hexanyl)pyridine-2-carboxamide] | 1%
5 | O=C(Cc1cc(Cl)ccc1O)Nc1ccnc(C(=O)N[C@@]2(CO)CCOC2)c1 (single isomer, unassigned) [Example 35b, 4-[[2-(5-Chloro-2-hydroxy-phenyl)acetyl]amino]-N-[(3R)-3-(hydroxymethyl)tetrahydrofuran-3-yl]pyridine-2-carboxamide or 4-[[2-(5-chloro-2-hydroxy-phenyl)acetyl]amino]-N-[(3S)-3-(hydroxymethyl)tetrahydrofuran-3-yl]pyridine-2-carboxamide] | 190%

Reference: patent US11364246B2, “Compounds” (TMEM16A Limited, priority 2019, dated 2022)
